ChEMBL document CHEMBL5236651, “Synthesis and antibacterial activity of novel 2‑fluoro ketolide antibiotics with 11,12‑quinoylalkyl side chains” (2023)
Converted amounts (≈) assume the structure as drawn.

Assays:
Assay type in all cases: functional
Klebsiella pneumoniae [1] = experiment: Antibacterial activity against ESBL positive Klebsiella pneumoniae ATCC 700603 assessed as inhibition of bacterial growth by CLSI based micro broth double dilution method
Klebsiella pneumoniae [2] = experiment: Antibacterial activity against ESBL negative Klebsiella pneumoniae 7 assessed as inhibition of bacterial growth by CLSI based micro broth double dilution method
Klebsiella pneumoniae [3] = experiment: Antibacterial activity against ESBL negative Klebsiella pneumoniae 16-2 assessed as inhibition of bacterial growth by CLSI based micro broth double dilution method
Streptococcus pyogenes [4] = experiment: Antibacterial activity against erythromycin-sensitive Streptococcus pyogenes ATCC 19615 assessed as inhibition of bacterial growth by CLSI based micro broth double dilution method
Streptococcus pyogenes [5] = experiment: Antibacterial activity against erythromycin-resistant Streptococcus pyogenes 12-1 assessed as inhibition of bacterial growth by CLSI based micro broth double dilution method
Enterococcus faecalis [6] = experiment: Antibacterial activity against vancomycin-sensitive Enterococcus faecalis […] assessed as inhibition of bacterial growth by CLSI based micro broth double dilution method
Enterococcus faecalis [7] = experiment: Antibacterial activity against vancomycin-sensitive Enterococcus faecalis 16-6 assessed as inhibition of bacterial growth by CLSI based micro broth double dilution method
Enterococcus faecalis [8] = experiment: Antibacterial activity against vancomycin-resistant Enterococcus faecalis ATCC 51575 assessed as inhibition of bacterial growth by CLSI based micro broth double dilution method
Enterococcus faecalis [9] = experiment: Antibacterial activity against vancomycin-resistant Enterococcus faecalis ATCC 51299 assessed as inhibition of bacterial growth by CLSI based micro broth double dilution method
Streptococcus pneumoniae [10] = experiment: Antibacterial activity against erythromycin-sensitive Streptococcus pneumoniae ATCC 49619 assessed as inhibition of bacterial growth by CLSI based micro broth double dilution method
Streptococcus pneumoniae [11] = experiment: Antibacterial activity against erythromycin-resistant Streptococcus pneumoniae 12-3 assessed as inhibition of bacterial growth by CLSI based micro broth double dilution method
Escherichia coli [12] = experiment: Antibacterial activity against ESBL-negative Escherichia coli ATCC 25922 assessed as inhibition of bacterial growth by CLSI based micro broth double dilution method
Escherichia coli [13] = experiment: Antibacterial activity against Escherichia coli 16-7 assessed as inhibition of bacterial growth by CLSI based micro broth double dilution method
Escherichia coli [14] = experiment: Antibacterial activity against ESBL-positive Escherichia coli ATCC 35218 assessed as inhibition of bacterial growth by CLSI based micro broth double dilution method
[15] = test system: Staphylococcus epidermidis; experiment: Antibacterial activity against methicillin-sensitive Staphylococcus epidermidis ATCC 12228 assessed as inhibition of bacterial growth by CLSI based micro broth double dilution method
[16] = test system: Staphylococcus epidermidis; experiment: Antibacterial activity against methicillin-sensitive Staphylococcus epidermidis 16-4 assessed as inhibition of bacterial growth by CLSI based micro broth double dilution method
Staphylococcus aureus [17] = experiment: Antibacterial activity against methicillin-sensitive Staphylococcus aureus ATCC 29213 assessed as inhibition of bacterial growth by CLSI based micro broth double dilution method
Staphylococcus aureus [18] = experiment: Antibacterial activity against methicillin-sensitive Staphylococcus aureus 15 assessed as inhibition of bacterial growth by CLSI based micro broth double dilution method
Staphylococcus aureus [19] = experiment: Antibacterial activity against methicillin-sensitive Staphylococcus aureus 16-1 assessed as inhibition of bacterial growth by CLSI based micro broth double dilution method
Pseudomonas aeruginosa [20] = experiment: Antibacterial activity against Pseudomonas aeruginosa ATCC 27853 assessed as inhibition of bacterial growth by CLSI based micro broth double dilution method
Pseudomonas aeruginosa [21] = experiment: Antibacterial activity against Pseudomonas aeruginosa PAO1 assessed as inhibition of bacterial growth by CLSI based micro broth double dilution method
Pseudomonas aeruginosa [22] = experiment: Antibacterial activity against Pseudomonas aeruginosa 16-11 assessed as inhibition of bacterial growth by CLSI based micro broth double dilution method
Streptococcus pyogenes [23] = experiment: Potency index, ratio of telithromycin MIC to test compound MIC for antibacterial activity against erythromycin-resistant Streptococcus pyogenes 12-1 assessed as inhibition of bacterial growth by CLSI based micro broth double dilution method
Streptococcus pneumoniae [24] = experiment: Potency index, ratio of telithromycin MIC to test compound MIC for antibacterial activity against erythromycin-resistant Streptococcus pneumoniae 12-3 assessed as inhibition of bacterial growth by CLSI based micro broth double dilution method

Row | Compound | MIC (Klebsiella pneumoniae [1]) [µg/mL] | MIC (Klebsiella pneumoniae [2]) [µg/mL] | MIC (Klebsiella pneumoniae [3]) [µg/mL] | MIC (Streptococcus pyogenes [4]) [µg/mL] | MIC (Streptococcus pyogenes [5]) [µg/mL] | MIC (Enterococcus faecalis [6]) [µg/mL] | MIC (Enterococcus faecalis [7]) [µg/mL] | MIC (Enterococcus faecalis [8]) [µg/mL] | MIC (Enterococcus faecalis [9]) [µg/mL] | MIC (Streptococcus pneumoniae [10]) [µg/mL] | MIC (Streptococcus pneumoniae [11]) [µg/mL] | MIC (Escherichia coli [12]) [µg/mL] | MIC (Escherichia coli [13]) [µg/mL] | MIC (Escherichia coli [14]) [µg/mL] | MIC [15] [µg/mL] | MIC [16] [µg/mL] | MIC (Staphylococcus aureus [17]) [µg/mL] | MIC (Staphylococcus aureus [18]) [µg/mL] | MIC (Staphylococcus aureus [19]) [µg/mL] | MIC (Pseudomonas aeruginosa [20]) [µg/mL] | further results
1 | CCCCN(CCCN1C(=O)O[C@]2(C)[C@@H](CC)OC(=O)[C@@](C)(F)C(=O)[C@H](C)[C@@H](O[C@@H]3O[C@H](C)C[C@H](N(C)C)[C@H]3O)[C@@](C)(OC)C[C@@H](C)C(=O)[C@H](C)[C@@H]12)c1ccnc2ccccc12 | 32 (≈ 36.7 µM) | > 32 | > 32 | 0.015 (≈ 0.0172 µM) | 2 (≈ 2.3 µM) | 0.03 (≈ 0.0344 µM) | 2 (≈ 2.3 µM) | 1 (≈ 1.15 µM) | 1 (≈ 1.15 µM) | ≤ 0.016 | ≤ 0.016 | 32 (≈ 36.7 µM) | 32 (≈ 36.7 µM) | 32 (≈ 36.7 µM) | 0.12 (≈ 0.138 µM) | 0.25 (≈ 0.287 µM) | 1 (≈ 1.15 µM) | 0.06 (≈ 0.0689 µM) | 0.12 (≈ 0.138 µM) | 32 (≈ 36.7 µM) | MIC (Pseudomonas aeruginosa [21]): 16 µg/mL (≈ 18.4 µM); MIC (Pseudomonas aeruginosa [22]): 16 µg/mL (≈ 18.4 µM); Ratio (Streptococcus pyogenes [23]): 32; Ratio (Streptococcus pneumoniae [24]): 4
2 | CC[C@H]1OC(=O)[C@H](C)[C@@H](O[C@H]2C[C@@](C)(OC)[C@@H](O)[C@H](C)O2)[C@H](C)[C@@H](O[C@@H]2O[C@H](C)C[C@H](N(C)C)[C@H]2O)[C@](C)(OC)C[C@@H](C)C(=O)[C@H](C)[C@@H](O)[C@]1(C)O [CLARITHROMYCIN] | > 64 | > 64 | > 64 | 0.03 (≈ 0.0401 µM) | 64 (≈ 85.6 µM) | 2 (≈ 2.67 µM) | > 64 | > 64 | > 64 | 0.12 (≈ 0.16 µM) | > 32 | 32 (≈ 42.8 µM) | > 64 | > 64 | 0.12 (≈ 0.16 µM) | 64 (≈ 85.6 µM) | 0.25 (≈ 0.334 µM) | 0.25 (≈ 0.334 µM) | 0.25 (≈ 0.334 µM) | > 64 | MIC (Pseudomonas aeruginosa [21]): > 64 µg/mL; MIC (Pseudomonas aeruginosa [22]): > 64 µg/mL
3 | CC[C@H]1OC(=O)[C@@](C)(F)C(=O)[C@H](C)[C@@H](O[C@@H]2O[C@H](C)C[C@H](N(C)C)[C@H]2O)[C@@](C)(OC)C[C@@H](C)C(=O)[C@H](C)[C@H]2N(CCCN(C(=O)/C=C/c3ccccc3)c3cnc4ccccc4c3)C(=O)O[C@]12C | 32 (≈ 33.9 µM) | > 32 | > 32 | 0.25 (≈ 0.265 µM) | 8 (≈ 8.46 µM) | 0.5 (≈ 0.529 µM) | > 32 | > 32 | > 32 | ≤ 0.016 | 0.25 (≈ 0.265 µM) | > 32 | > 32 | > 32 | 1 (≈ 1.06 µM) | 2 (≈ 2.12 µM) | 1 (≈ 1.06 µM) | 1 (≈ 1.06 µM) | 1 (≈ 1.06 µM) | > 32 | MIC (Pseudomonas aeruginosa [21]): > 32 µg/mL; MIC (Pseudomonas aeruginosa [22]): > 32 µg/mL
4 | CC[C@H]1OC(=O)[C@@](C)(F)C(=O)[C@H](C)[C@@H](O[C@@H]2O[C@H](C)C[C@H](N(C)C)[C@H]2O)[C@@](C)(OC)C[C@@H](C)C(=O)[C@H](C)[C@H]2N(CCCN(C(=O)c3ccccc3)c3ccnc4ccccc34)C(=O)O[C@]12C | > 32 | > 32 | > 32 | 0.12 (≈ 0.131 µM) | > 32 | 0.25 (≈ 0.272 µM) | > 32 | > 32 | > 32 | ≤ 0.016 | 0.06 (≈ 0.0653 µM) | > 32 | > 32 | > 32 | 1 (≈ 1.09 µM) | 1 (≈ 1.09 µM) | 1 (≈ 1.09 µM) | 1 (≈ 1.09 µM) | 0.5 (≈ 0.544 µM) | > 32 | MIC (Pseudomonas aeruginosa [21]): > 32 µg/mL; MIC (Pseudomonas aeruginosa [22]): > 32 µg/mL
5 | CC[C@H]1OC(=O)[C@@](C)(F)C(=O)[C@H](C)[C@@H](O[C@@H]2O[C@H](C)C[C@H](N(C)C)[C@H]2O)[C@@](C)(OC)C[C@@H](C)C(=O)[C@H](C)[C@H]2N(CCCN(C(=O)c3ccccc3)c3cnc4ccccc4c3)C(=O)O[C@]12C | > 32 | > 32 | > 32 | 0.03 (≈ 0.0326 µM) | 32 (≈ 34.8 µM) | 0.12 (≈ 0.131 µM) | > 32 | > 32 | > 32 | ≤ 0.016 | 0.06 (≈ 0.0653 µM) | > 32 | > 32 | > 32 | 0.12 (≈ 0.131 µM) | 1 (≈ 1.09 µM) | 0.25 (≈ 0.272 µM) | 0.25 (≈ 0.272 µM) | 0.25 (≈ 0.272 µM) | > 32 | MIC (Pseudomonas aeruginosa [21]): > 32 µg/mL; MIC (Pseudomonas aeruginosa [22]): > 32 µg/mL
6 | CC[C@H]1OC(=O)[C@@](C)(F)C(=O)[C@H](C)[C@@H](O[C@@H]2O[C@H](C)C[C@H](N(C)C)[C@H]2O)[C@@](C)(OC)C[C@@H](C)C(=O)[C@H](C)[C@H]2N(CCCNc3cnc4ccccc4c3)C(=O)O[C@]12C | > 32 | > 32 | > 32 | 0.12 (≈ 0.147 µM) | 32 (≈ 39.3 µM) | 0.06 (≈ 0.0736 µM) | > 32 | > 32 | > 32 | ≤ 0.016 | ≤ 0.016 | 16 (≈ 19.6 µM) | 32 (≈ 39.3 µM) | 32 (≈ 39.3 µM) | 0.12 (≈ 0.147 µM) | 0.12 (≈ 0.147 µM) | 0.12 (≈ 0.147 µM) | 0.12 (≈ 0.147 µM) | 0.12 (≈ 0.147 µM) | 32 (≈ 39.3 µM) | MIC (Pseudomonas aeruginosa [21]): 16 µg/mL (≈ 19.6 µM); MIC (Pseudomonas aeruginosa [22]): 32 µg/mL (≈ 39.3 µM)
7 | CC[C@H]1OC(=O)[C@@](C)(F)C(=O)[C@H](C)[C@@H](O[C@@H]2O[C@H](C)C[C@H](N(C)C)[C@H]2O)[C@@](C)(OC)C[C@@H](C)C(=O)[C@H](C)[C@H]2N(CCCN(C(C)=O)c3cnc4ccccc4c3)C(=O)O[C@]12C | 32 (≈ 37.3 µM) | > 32 | > 32 | 0.25 (≈ 0.292 µM) | > 32 | 0.12 (≈ 0.14 µM) | > 32 | > 32 | > 32 | 0.06 (≈ 0.07 µM) | 0.25 (≈ 0.292 µM) | > 32 | > 32 | > 32 | 0.25 (≈ 0.292 µM) | 1 (≈ 1.17 µM) | 0.25 (≈ 0.292 µM) | 0.25 (≈ 0.292 µM) | 0.25 (≈ 0.292 µM) | > 32 | MIC (Pseudomonas aeruginosa [21]): > 32 µg/mL; MIC (Pseudomonas aeruginosa [22]): > 32 µg/mL
